Experimental data taken from the NIST ThermoML archive (doi:10.1016/j.jct.2014.07.018).
Values joined by “and” are separate entries in the source; they are usually repeats but may differ in a detail not shown here. Equal values may be shown once.

Test: molar heat capacity at constant pressure
Settings: 101.33 kPa, Vacuum adiabatic calorimetry

CCC[n+]1ccn(C)c1.[Br-] [1-methyl-3-propylimidazolium bromide]
molar heat capacity at constant pressure
Settings | Crystal 2 | Glass
5 K | 0.294 J/K/mol | 1 J/K/mol
5.52 K | 0.401 J/K/mol | –
5.87 K | 0.492 J/K/mol | –
6.21 K | 0.596 J/K/mol | –
6.59 K | 0.729 J/K/mol | –
6.61 K | – | 2.26 J/K/mol
6.94 K | – | 2.56 J/K/mol
6.97 K | 0.883 J/K/mol | –
7.33 K | – | 2.953 J/K/mol
7.35 K | 1.057 J/K/mol | –
7.73 K | 1.253 J/K/mol | –
7.74 K | – | 3.376 J/K/mol
8.12 K | 1.472 J/K/mol | –
8.14 K | – | 3.817 J/K/mol
8.51 K | 1.709 J/K/mol | –
8.55 K | – | 4.303 J/K/mol
8.89 K | 1.969 J/K/mol | –
8.96 K | – | 4.799 J/K/mol
9.28 K | 2.25 J/K/mol | –
9.37 K | – | 5.312 J/K/mol
9.68 K | 2.56 J/K/mol | –
9.78 K | – | 5.854 J/K/mol
10 K | 2.83 J/K/mol | 6.16 J/K/mol
10.07 K | 2.896 J/K/mol | –
10.19 K | – | 6.42 J/K/mol
10.57 K | 3.349 J/K/mol | –
10.71 K | – | 7.156 J/K/mol
11.17 K | 3.934 J/K/mol | –
11.34 K | – | 8.069 J/K/mol
11.78 K | 4.563 J/K/mol | –
11.96 K | – | 9.014 J/K/mol
12.39 K | 5.251 J/K/mol | –
12.59 K | – | 10.01 J/K/mol
12.76 K | – | 10.27 J/K/mol
13 K | 5.972 J/K/mol | –
13.23 K | – | 11.02 J/K/mol
13.27 K | – | 11.09 J/K/mol
13.62 K | 6.746 J/K/mol | –
13.86 K | – | 12.06 J/K/mol
13.9 K | – | 12.12 J/K/mol
14.24 K | 7.548 J/K/mol | –
14.5 K | – | 13.11 J/K/mol
14.53 K | – | 13.18 J/K/mol
14.85 K | 8.382 J/K/mol | –
15 K | 8.58 J/K/mol | 13.96 J/K/mol
15.17 K | – | 14.27 J/K/mol
15.58 K | 9.404 J/K/mol | –
15.96 K | – | 15.61 J/K/mol
16.42 K | 10.63 J/K/mol | –
16.9 K | – | 17.24 J/K/mol
17.26 K | 11.9 J/K/mol | –
17.83 K | – | 18.9 J/K/mol
18.09 K | 13.21 J/K/mol | –
18.77 K | – | 20.57 J/K/mol
18.93 K | 14.56 J/K/mol | –
19.7 K | – | 22.25 J/K/mol
19.77 K | 15.94 J/K/mol | –
20 K | 16.31 J/K/mol | 22.8 J/K/mol
20.91 K | 17.83 J/K/mol | –
20.95 K | – | 24.53 J/K/mol
22.33 K | 20.27 J/K/mol | –
22.51 K | – | 27.36 J/K/mol
23.77 K | 22.77 J/K/mol | –
24.09 K | – | 30.19 J/K/mol
25 K | 24.9 J/K/mol | 31.8 J/K/mol
25.2 K | 25.25 J/K/mol | –
25.66 K | – | 32.96 J/K/mol
26.63 K | 27.75 J/K/mol | –
27.23 K | – | 35.71 J/K/mol
28.07 K | 30.25 J/K/mol | –
28.81 K | – | 38.42 J/K/mol
29.52 K | 32.71 J/K/mol | –
30 K | 33.56 J/K/mol | 40.46 J/K/mol
30.4 K | – | 41.1 J/K/mol
31.17 K | 35.56 J/K/mol | –
32.13 K | – | 43.97 J/K/mol
33.03 K | 38.66 J/K/mol | –
34.01 K | – | 46.95 J/K/mol
34.89 K | 41.68 J/K/mol | –
35 K | 41.84 J/K/mol | 48.45 J/K/mol
35.9 K | – | 49.88 J/K/mol
36.76 K | 44.57 J/K/mol | –
37.79 K | – | 52.63 J/K/mol
38.63 K | 47.38 J/K/mol | –
39.67 K | – | 55.27 J/K/mol
40 K | 49.44 J/K/mol | 55.78 J/K/mol
40.49 K | 50.15 J/K/mol | –
41.76 K | – | 58.17 J/K/mol
42.5 K | 53 J/K/mol | –
44.05 K | – | 61.22 J/K/mol
44.67 K | 55.99 J/K/mol | –
45 K | 56.45 J/K/mol | 62.48 J/K/mol
46.42 K | – | 64.28 J/K/mol
46.85 K | 58.9 J/K/mol | –
48.69 K | – | 67.11 J/K/mol
49.03 K | 61.73 J/K/mol | –
50 K | 62.88 J/K/mol | 68.62 J/K/mol
50.77 K | – | 69.55 J/K/mol
51.21 K | 64.4 J/K/mol | –
52.86 K | – | 71.87 J/K/mol
53.39 K | 66.92 J/K/mol | –
54.95 K | – | 74.14 J/K/mol
55.57 K | 69.38 J/K/mol | –
57.04 K | – | 76.42 J/K/mol
57.75 K | 71.78 J/K/mol | –
59.13 K | – | 78.63 J/K/mol
59.93 K | 74.14 J/K/mol | –
60 K | 74.22 J/K/mol | 79.52 J/K/mol
61.23 K | – | 80.83 J/K/mol
62.13 K | 76.42 J/K/mol | –
63.32 K | – | 82.92 J/K/mol
64.33 K | 78.63 J/K/mol | –
65.42 K | – | 84.99 J/K/mol
66.53 K | 80.71 J/K/mol | –
67.53 K | – | 86.98 J/K/mol
68.72 K | 82.68 J/K/mol | –
69.62 K | – | 88.87 J/K/mol
70 K | 83.84 J/K/mol | 89.28 J/K/mol
70.92 K | 84.56 J/K/mol | –
71.72 K | – | 90.74 J/K/mol
73.18 K | 86.57 J/K/mol | –
73.83 K | – | 92.54 J/K/mol
75.5 K | 88.58 J/K/mol | –
75.93 K | – | 94.45 J/K/mol
77.81 K | 90.59 J/K/mol | –
78.04 K | – | 96.34 J/K/mol
78.3 K | 90.96 J/K/mol | –
78.68 K | 91.25 J/K/mol | –
79.18 K | – | 97.3 J/K/mol
80 K | 92.3 J/K/mol | 97.87 J/K/mol
80.13 K | 92.58 J/K/mol | –
80.17 K | – | 98.2 J/K/mol
80.36 K | 92.62 J/K/mol | –
80.94 K | 93.01 J/K/mol | –
81.21 K | – | 98.9 J/K/mol
82.27 K | 94.04 J/K/mol | –
82.29 K | – | 99.76 J/K/mol
82.46 K | 94.26 J/K/mol | –
82.87 K | 94.47 J/K/mol | –
83.14 K | – | 100.3 J/K/mol
84.2 K | 95.47 J/K/mol | –
84.42 K | – | 101.2 J/K/mol
84.8 K | 95.84 J/K/mol and 95.9 J/K/mol | –
85.07 K | – | 101.7 J/K/mol
86.13 K | 96.85 J/K/mol | –
86.73 K | 97.28 J/K/mol | –
87.01 K | – | 103.1 J/K/mol
88.08 K | 98.24 J/K/mol | –
88.67 K | 98.67 J/K/mol | –
88.94 K | – | 104.6 J/K/mol
90 K | 99.64 J/K/mol | 105.4 J/K/mol
90.04 K | 99.66 J/K/mol | –
90.6 K | 100 J/K/mol | –
90.88 K | – | 106 J/K/mol
92.01 K | 101.1 J/K/mol | –
92.54 K | 101.4 J/K/mol | –
92.82 K | – | 107.4 J/K/mol
93.99 K | 102.5 J/K/mol | –
94.48 K | 102.8 J/K/mol | –
94.77 K | – | 108.7 J/K/mol
95.98 K | 103.8 J/K/mol | –
96.43 K | 104.1 J/K/mol | –
96.72 K | – | 110.1 J/K/mol
97.97 K | 105.1 J/K/mol | –
98.38 K | 105.4 J/K/mol | –
98.66 K | – | 111.4 J/K/mol
99.98 K | 106.5 J/K/mol | –
100 K | 106.4 J/K/mol | 112.3 J/K/mol
100.34 K | 106.7 J/K/mol | –
100.62 K | – | 112.7 J/K/mol
101.99 K | 107.7 J/K/mol | –
102.29 K | 107.9 J/K/mol | –
102.57 K | – | 114 J/K/mol
104.01 K | 109 J/K/mol | –
104.25 K | 109.1 J/K/mol | –
104.53 K | – | 115.3 J/K/mol
106.04 K | 110.2 J/K/mol | –
106.21 K | 110.3 J/K/mol | –
106.49 K | – | 116.5 J/K/mol
108.08 K | 111.5 J/K/mol | –
108.17 K | 111.6 J/K/mol | –
108.45 K | – | 117.8 J/K/mol
110 K | 112.6 J/K/mol | 118.7 J/K/mol
110.12 K | 112.7 J/K/mol | –
110.14 K | 112.7 J/K/mol | –
110.41 K | – | 119 J/K/mol
112.1 K | 113.9 J/K/mol | –
112.17 K | 113.9 J/K/mol | –
112.38 K | – | 120.2 J/K/mol
114.07 K | 115 J/K/mol | –
114.22 K | 115.1 J/K/mol | –
114.35 K | – | 121.4 J/K/mol
116.04 K | 116.2 J/K/mol | –
116.28 K | 116.3 J/K/mol | –
116.32 K | – | 122.6 J/K/mol
118.01 K | 117.3 J/K/mol | –
118.29 K | – | 123.8 J/K/mol
118.34 K | 117.5 J/K/mol | –
119.98 K | 118.4 J/K/mol | –
120 K | 118.4 J/K/mol | 124.8 J/K/mol
120.27 K | – | 124.9 J/K/mol
120.41 K | 118.7 J/K/mol | –
121.96 K | 119.4 J/K/mol | –
122.24 K | – | 126.1 J/K/mol
122.48 K | 119.8 J/K/mol | –
123.94 K | 120.6 J/K/mol | –
124.22 K | – | 127.2 J/K/mol
124.56 K | 121 J/K/mol | –
125.91 K | 121.7 J/K/mol | –
126.2 K | – | 128.4 J/K/mol
126.63 K | 122.1 J/K/mol | –
127.9 K | 122.8 J/K/mol | –
128.18 K | – | 129.5 J/K/mol
128.72 K | 123.2 J/K/mol | –
129.88 K | 123.8 J/K/mol | –
130 K | 123.9 J/K/mol | 130.6 J/K/mol
130.17 K | – | 130.7 J/K/mol
130.8 K | 124.4 J/K/mol | –
131.86 K | 124.9 J/K/mol | –
132.15 K | – | 131.8 J/K/mol
132.89 K | 125.5 J/K/mol | –
133.84 K | 126 J/K/mol | –
134.14 K | – | 132.9 J/K/mol
134.99 K | 126.6 J/K/mol | –
135.84 K | 127 J/K/mol | –
136.13 K | – | 134 J/K/mol
137.08 K | 127.7 J/K/mol | –
137.83 K | 128 J/K/mol | –
138.12 K | – | 135.2 J/K/mol
139.18 K | 128.7 J/K/mol | –
139.83 K | 129.1 J/K/mol | –
140 K | 129.2 J/K/mol | 136.2 J/K/mol
140.12 K | – | 136.3 J/K/mol
141.28 K | 129.8 J/K/mol | –
141.83 K | 130.1 J/K/mol | –
142.11 K | – | 137.4 J/K/mol
143.39 K | 130.9 J/K/mol | –
143.83 K | 131.1 J/K/mol | –
144.11 K | – | 138.5 J/K/mol
145.49 K | 132 J/K/mol | –
145.83 K | 132.1 J/K/mol | –
146.11 K | – | 139.7 J/K/mol
147.6 K | 133 J/K/mol | –
